Data set [1] has as its system HEK 293T (human embryonic kidney cancer cell line). Description: In vitro cytotoxicity assay (CellTiter-Glo, 72 hours), HEK 293T. The following applies: Homo sapiens, HEK-293T, 72 h. Format: cell-based. (Cellular ATP, detected with luciferase, serves as a proxy for viable cell number.)
Data set [2] has as its system MES SA, MES SA DX and HEK 293T cells. The data set is described as follows: In vitro cytotoxicity assay, structure-activity discussion over the cell lines tested. The following applies: refers to Tables 2 and 3.
Data set [3] has as its system MES SA DX (MES SA cell line with marked multi-drug resistance). The data set is described as follows: In vitro cytotoxicity assay (CellTiter-Glo, 72 hours), MES SA DX. The note with it: for IC50: Homo sapiens, MES-SA, 72 h.
The test system of data set [4] is MES SA (uterine sarcoma cell line). Description: In vitro cytotoxicity assay (CellTiter-Glo, 72 hours), MES SA. Format: cell-based. The note with it: Homo sapiens, MES-SA, 72 h.
Setting [5] is: read-out: HEK 293T, IC50 Value in nM.
[6] abbreviates: read-out: MES SA DX, IC50 Value in nM.
[7] abbreviates: read-out: MES SA, IC50 Value in nM.

By IC50 is commonly meant the midpoint of a concentration-inhibition curve.

Each structure is given as a SMILES string. Like-named read-outs stand apart in the source and are kept apart here.

As to `CC(=O)O[C@H](C[C@H](C(C)C)N(C)C(=O)[C@@H](NC(=O)[C@H]1CCCCN1C)C(C)(C)C)c1nc(C(=O)N[C@@H](Cc2ccccc2)C[C@H](C)C(=O)O)cs1` [Tb107, (2S,4R)-4-[({2-[(1R,3R)-1-Acetoxy-3-{[(2S)-3,3-dimethyl-2-({[(2R)-1-methylpiperidin-2-yl]carbonyl}amino)butanoyl](methyl)amino}-4-methylpentyl]-1,3-thiazol-4-yl}carbonyl)amino]-2-methyl-5-phenylpentanoic acid], the concentration for half-maximal inhibition (IC50) turned out to be 0.02 nM in data set [1] (read-out: HEK 293T, IC50); 0.02 nM in data set [1] (setting [5]); 4.05 nM in data set [3] (read-out: MES SA DX, IC50); 4.05 nM in data set [3] (setting [6]); 0.01 nM in data set [4] (read-out: MES SA, IC50); 0.01 nM in data set [4] (setting [7]). Moreover, the “cytotoxicity potency (in words, structure-activity discussion)” value (from here on “cytotoxicity potency”) in data set [2] was “exceptional potencies”. Moreover, the “cytotoxicities against the marked drug resistant cancer cell line MES SA DX (in words)” value in data set [3] is given as “relatively potent (low nanomolar)”.
As for `CCOC(=O)[C@@H](C)C[C@H](Cc1ccccc1)NC(=O)c1csc([C@@H](C[C@H](C(C)C)N(C)C(=O)[C@H](CCC(C)C)NC(=O)[C@H]2CCCCN2C)OC(C)=O)n1` [Tb97, Ethyl (2S,4R)-4-[({2-[(1R,3R)-1-acetoxy-4-methyl-3-{methyl[(2S)-5-methyl-2-({[(2R)-1-methyl-piperidin-2-yl]carbonyl}amino)hexanoyl]amino}pentyl]-1,3-thiazol-4-yl}carbonyl)amino]-2-methyl-5-phenylpentanoate], the IC50 is 2.87 nM in data set [1] (setting [5]), more than 1000 nM in data set [3] (setting [6]) and 4.65 nM in data set [4] (setting [7]). For the same compound, in data set [2], the “cytotoxicity potency” value was “lack of or significantly lower cytotoxicities”.
The corresponding values for `CCOC(=O)[C@@H](C)C[C@H](Cc1ccccc1)NC(=O)c1csc([C@@H](C[C@H](C(C)C)N(C)C(=O)CNC(=O)[C@H]2CCCCN2C)OC(C)=O)n1` [Tb88, Ethyl (2S,4R)-4-[({2-[(1R,3R)-1-acetoxy-4-methyl-3-{methyl[({[(2R)-1-methylpiperidin-2-yl]carbonyl}amino)acetyl]amino}pentyl]-1,3-thiazol-4-yl}carbonyl)amino]-2-methyl-5-phenylpentanoate] are 494 nM, more than 2500 nM, 458 nM and “no significant activity”.
In the same order, the values of `COC(=O)[C@@H](C)C[C@H](Cc1ccc2ccccc2c1)NC(=O)c1csc([C@@H](C[C@H](C(C)C)N(C)C(=O)[C@@H](NC(=O)[C@H]2CCCCN2C)C(C)C)OC(C)=O)n1` [Tb104, Methyl (2S)-4-{[(2-{1-acetoxy-4-methyl-3-[methyl(3-methyl-2-{[(1-methylpiperidin-2-yl)carbonyl]-amino}butanoyl)amino]pentyl}-1,3-thiazol-4-yl)carbonyl]amino}-2-methyl-5-(2-naphthyl)pentanoate] are 12.8 nM, more than 1000 nM, 9.5 nM and “modest potency”.
With `CCCC[C@H](NC(=O)[C@H]1CCCCN1C)C(=O)N(C)[C@H](C[C@@H](OC(C)=O)c1nc(C(=O)N[C@@H](Cc2ccccc2)C[C@H](C)C(=O)OCC)cs1)C(C)C` [Tb95, Ethyl (2S,4R)-4-[({2-[(1R,3R)-1-acetoxy-4-methyl-3-{methyl[(2S)-2-({[(2R)-1-methylpiperidin-2-yl]-carbonyl}amino)hexanoyl]amino}pentyl]-1,3-thiazol-4-yl}carbonyl)amino]-2-methyl-5-phenylpentanoate], the half-maximal inhibitory concentration (IC50) in data set [1] (read-out: HEK 293T, IC50) is 0.53 nM; in data set [1] (setting [5]), 0.53 nM; in data set [3] (read-out: MES SA DX, IC50) it was more than 1000 nM; in data set [3] (setting [6]), more than 1000 nM; in data set [4] (read-out: MES SA, IC50) it was 0.937 nM; in data set [4] (setting [7]) it was 0.937 nM. The “cytotoxicity potency” value in data set [2] was “lack of or significantly lower cytotoxicities”.
For the compound `CC(=O)O[C@H](C[C@H](C(C)C)N(C)C(=O)[C@@H](NC(=O)[C@H]1CCCCN1C)C(C)C)c1nc(C(=O)N[C@@H](Cc2ccccc2)C[C@H](C)C(=O)O)cs1` [Tb61, (2S,4R)-4-[({2-[(1R,3R)-1-Acetoxy-4-methyl-3-{methyl[(2S)-3-methyl-2-({[(2R)-1-methylpiperidin-2-yl]carbonyl}amino)butanoyl]amino}pentyl]-1,3-thiazol-4-yl}carbonyl)amino]-2-methyl-5-phenylpentanoic acid], the IC50 is 5.99 nM in data set [1] (setting [5]), more than 1000 nM in data set [3] (setting [6]) and 6.07 nM in data set [4] (setting [7]). In addition, in data set [2], the “cytotoxicity potency” value was “exceptional potencies”.
In the same order, the values of `COC(=O)[C@@H](C)C[C@H](Cc1ccccc1)NC(=O)c1nc([C@@H](C[C@H](C(C)C)N(C)C(=O)[C@@H](NC(=O)[C@H]2CCCN2C)C(C)C)OC(C)=O)sc1C` [Tb70, Methyl (2S,4R)-4-[({2-[(1R,3R)-1-acetoxy-4-methyl-3-{methyl[(2S)-3-methyl-2-({[(2R)-1-methyl-pyrrolidin-2-yl]carbonyl}amino)butanoyl]amino}pentyl]-5-methyl-1,3-thiazol-4-yl}carbonyl)amino]-2-methyl-5-phenylpentanoate] are 2.32 nM, more than 1000 nM, 3.11 nM and “significant loss of potency”.
`COC(=O)C12CC(NC(=O)c3csc([C@@H](C[C@H](C(C)C)N(C)C(=O)[C@@H](NC(=O)[C@H]4CCCCN4C)C(C)C)OC(C)=O)n3)(C1)C2` [Tb102, Methyl 3-{[(2-{1-acetoxy-4-methyl-3-[methyl(3-methyl-2-{[(1-methylpiperidin-2-yl)carbonyl]amino}-butanoyl)amino]pentyl}-1,3-thiazol-4-yl)carbonyl]amino}bicyclo[1.1.1]pentane-1-carboxylate]: the IC50 in data set [1] (read-out: HEK 293T, IC50) is 0.355 nM; in data set [1] (setting [5]) it was 0.355 nM; in data set [3] (read-out: MES SA DX, IC50), 54.1 nM; in data set [3] (setting [6]), 54.1 nM; in data set [4] (read-out: MES SA, IC50), 0.926 nM; in data set [4] (setting [7]), 0.926 nM. Besides, the “cytotoxicity potency” value in data set [2] is “subnanomolar potencies against two of the cell lines tested”.
As to `Cc1sc(C(=O)C[C@H](C(C)C)N(C)C(=O)[C@@H](NC(=O)[C@H]2CCCCN2C)C(C)C)nc1C(=O)N[C@@H](Cc1ccccc1)C[C@H](C)C(=O)O` [Tb68, (2S,4R)-2-Methyl-4-[({5-methyl-2-[(3R)-4-methyl-3-{methyl[(2S)-3-methyl-2-({[(2R)-1-methyl-piperidin-2-yl]carbonyl}amino)butanoyl]amino}pentanoyl]-1,3-thiazol-4-yl}carbonyl)amino]-5-phenylpentanoic acid], the 50% inhibitory concentration (IC50) in data set [1] (setting [5]), in data set [3] (setting [6]) and in data set [4] (setting [7]) was more than 1000 nM throughout. The “cytotoxicity potency” value in data set [2] was “significant reduction in potency”.
Consider `CC(C)[C@H](NC(=O)[C@H]1CCCCN1C)C(=O)N(C)[C@H](CC(=O)c1nc(C(=O)N[C@@H](Cc2ccccc2)C[C@H](C)C(=O)O)cs1)C(C)C` [Tb62, (2S,4R)-2-Methyl-4-[({2-[(3R)-4-methyl-3-{methyl[(2S)-3-methyl-2-({[(2R)-1-methylpiperidin-2-yl]-carbonyl}amino)butanoyl]amino}pentanoyl]-1,3-thiazol-4-yl}carbonyl)amino]-5-phenylpentanoic acid], for which the IC50 in data set [1] (setting [5]), in data set [3] (setting [6]) and in data set [4] (setting [7]) was more than 1000 nM each time. Also, the “cytotoxicity potency” value in data set [2] was “significant reduction in potency”.
Take `CCC(C)(C)[C@H](NC(=O)[C@H]1CCCCN1C)C(=O)N(C)[C@H](C[C@@H](OC(C)=O)c1nc(C(=O)N[C@@H](Cc2ccccc2)C[C@H](C)C(=O)O)cs1)C(C)C` [Tb109, (2S,4R)-4-[({2-[(1R,3R)-1-Acetoxy-3-{[(2S)-3,3-dimethyl-2-({[(2R)-1-methylpiperidin-2-yl]car-bonyl}amino)pentanoyl](methyl)amino}-4-methylpentyl]-1,3-thiazol-4-yl}carbonyl)amino]-2-methyl-5-phenylpentanoic acid]: the IC50 stood at 0.01 nM in data set [1] (read-out: HEK 293T, IC50); 0.01 nM in data set [1] (setting [5]); 1.39 nM in data set [3] (read-out: MES SA DX, IC50); 1.39 nM in data set [3] (setting [6]); 0.36 nM in data set [4] (read-out: MES SA, IC50); 0.36 nM in data set [4] (setting [7]). The “cytotoxicity potency” value in data set [2] is reported as “exceptional potencies”. The “cytotoxicities against the marked drug resistant cancer cell line MES SA DX (in words)” value in data set [3] was “relatively potent (low nanomolar)”.
With `CC[C@H](C)[C@H](NC(=O)c1nccn1C)C(=O)N(C)[C@H](C[C@@H](OC(C)=O)c1nc(C(=O)N[C@@H](Cc2ccccc2)C[C@H](C)C(=O)OC)cs1)C(C)C` [Tb51], the half-maximal inhibitory concentration (IC50) in data set [1] (setting [5]), in data set [3] (setting [6]) and in data set [4] (setting [7]) was more than 1000 nM in each case. Also, the “cytotoxicity potency” value in data set [2] is “insignificant or low biological activity”.
Take `CCOC(=O)[C@@H](C)C[C@H](Cc1ccccc1)NC(=O)c1csc([C@@H](C[C@H](C(C)C)N(C)C(=O)[C@@H](NC(=O)[C@H]2CCCCN2C)C(C)(C)C)OC(C)=O)n1` [Tb106, Ethyl (2S,4R)-4-[({2-[(1R,3R)-1-acetoxy-3-{[(2S)-3,3-dimethyl-2-({[(2R)-1-methylpiperidin-2-yl]car-bonyl}amino)butanoyl](methyl)amino}-4-methylpentyl]-1,3-thiazol-4-yl}carbonyl)amino]-2-methyl-5-phenylpentanoate]: the half-maximal inhibitory concentration (IC50) in data set [1] (read-out: HEK 293T, IC50) was determined as 0.13 nM; in data set [1] (setting [5]), 0.13 nM; in data set [3] (read-out: MES SA DX, IC50), 2.73 nM; in data set [3] (setting [6]), 2.73 nM; in data set [4] (read-out: MES SA, IC50), 0.12 nM; in data set [4] (setting [7]), 0.12 nM. The “cytotoxicity potency” value in data set [2] is “exceptional potencies”.

The values are drawn from patent publication US11274124B2, “Tubulysin analogues as anticancer agents and payloads for antibody-drug conjugates and methods of treatment therewith” (William Marsh Rice University, priority 2017, dated 2022).
